Source: patent US20070087346A1, “Orthogonal gene switches” (priority 2003, published 2007)
Numbering of substitutions follows the chain as printed. Where a name gives a salt, the structure may show the parent alone. Read-outs that look alike come from different tables or passages of the source.

Legend:
[1] = target: T1, GST-ERα wt-LBD (Homo sapiens, UniProt P03372); assay: competitive radiometric 3[H]E2 displacement binding assay, wt LBD
T1 construct: made in house; host or cells: E. coli BL21 (CodonPlus DE3-RIL)
T1 sequence (P03372 303-595): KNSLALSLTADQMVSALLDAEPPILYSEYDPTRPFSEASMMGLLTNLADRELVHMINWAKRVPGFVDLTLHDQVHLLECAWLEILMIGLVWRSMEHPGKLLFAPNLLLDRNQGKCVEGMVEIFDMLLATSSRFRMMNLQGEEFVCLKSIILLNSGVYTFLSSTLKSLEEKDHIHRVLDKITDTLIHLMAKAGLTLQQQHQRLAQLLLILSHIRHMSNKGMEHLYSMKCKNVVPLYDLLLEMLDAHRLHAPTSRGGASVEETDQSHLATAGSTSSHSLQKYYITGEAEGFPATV
Description: Microplates (Basic Flashplates, NEN) wells were coated for 12 hrs at 4° C. with 100 μl of PBS containing anti-GST antibodies (Amersham) at a concentration of 5 μg/ml. After washing three times with 200 μl of PBS, the background was reduced by saturating with 200 μl of PBS containing 1% BSA for 3 hrs at 4° C. Wells were then washed three times with 200 μl of lysis buffer containing 0.1 M NaCl and 0.2% n-Dodecyl BD-maltoside (assay buffer).
Suitable amounts of crude E. coli supernatants containing the GST-ER LBD proteins (2-10 μl) or of purified polypeptides (8 nM) were bound to the anti-GST antibody-coated wells for 1 hr at 23° C. in 200 μl of the assay buffer with constant agitation. After three more washes with 200 μl of the same buffer, the ligand-binding reaction was set up in 195 μl of assay buffer containing 2 nM-10 nM 3[H]E2 and 5 μl of DMSO or of suitable dilutions of the test compounds in DMSO. Incubation was for 2 hrs at 23° C. with constant shaking, followed by SPA radioactivity measurement using a microplate scintillation and luminescence counter (Top Count NXT, Packard). IC50 values were obtained by multiparameter logistic fitting of the experimental data with the aid of a Kaleidagraph software.

[2] = system: MG-LBD variant with Gly521 substituted with Val, Leu, Met, or Arg; assay: β-Galactosidase transcription assay in yeast, Gly521 substitutions in MG-LBD; assay type: cell-based, human; conditions: data not shown
[3] = target: hERβ (Homo sapiens, UniProt Q92731); assay: binding to full-length hERβ; conditions: full-length receptor
[4] = target: T2, hERα (Homo sapiens, UniProt P03372); assay: binding to full-length hERα
T2 construct: relative to the wt LBD and to both α and β full-length ER
T2 sequence (P03372 1-595): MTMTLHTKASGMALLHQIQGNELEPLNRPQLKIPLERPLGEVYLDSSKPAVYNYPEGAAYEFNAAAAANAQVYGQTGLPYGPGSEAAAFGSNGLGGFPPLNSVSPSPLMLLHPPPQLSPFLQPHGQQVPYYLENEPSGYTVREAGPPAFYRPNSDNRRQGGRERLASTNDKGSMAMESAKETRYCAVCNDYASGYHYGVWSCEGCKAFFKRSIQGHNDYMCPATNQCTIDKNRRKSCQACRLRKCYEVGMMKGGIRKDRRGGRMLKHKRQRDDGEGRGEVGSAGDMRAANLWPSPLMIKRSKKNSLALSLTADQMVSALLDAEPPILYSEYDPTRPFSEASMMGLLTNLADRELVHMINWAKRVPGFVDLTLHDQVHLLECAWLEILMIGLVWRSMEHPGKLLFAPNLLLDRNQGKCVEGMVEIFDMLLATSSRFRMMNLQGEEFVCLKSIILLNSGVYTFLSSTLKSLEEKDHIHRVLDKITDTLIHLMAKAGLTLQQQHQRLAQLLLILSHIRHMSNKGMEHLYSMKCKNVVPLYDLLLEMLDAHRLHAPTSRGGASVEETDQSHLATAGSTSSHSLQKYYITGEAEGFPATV

[5] = target: T3, HEA-1 (Homo sapiens, UniProt P03372, G521R); conditions: cell culture; Roscilli et al., 2002; cited from earlier work
T3 sequence (P03372 303-595 G521R): T1 sequence (P03372 303-595) with G219R

[6] = 3[H]E2 displacement, read-out: GST-ERα wt-LBD IC50
[7] = full-length receptor, read-out: hERα IC50

Sequence of hERβ (Q92731 whole entry): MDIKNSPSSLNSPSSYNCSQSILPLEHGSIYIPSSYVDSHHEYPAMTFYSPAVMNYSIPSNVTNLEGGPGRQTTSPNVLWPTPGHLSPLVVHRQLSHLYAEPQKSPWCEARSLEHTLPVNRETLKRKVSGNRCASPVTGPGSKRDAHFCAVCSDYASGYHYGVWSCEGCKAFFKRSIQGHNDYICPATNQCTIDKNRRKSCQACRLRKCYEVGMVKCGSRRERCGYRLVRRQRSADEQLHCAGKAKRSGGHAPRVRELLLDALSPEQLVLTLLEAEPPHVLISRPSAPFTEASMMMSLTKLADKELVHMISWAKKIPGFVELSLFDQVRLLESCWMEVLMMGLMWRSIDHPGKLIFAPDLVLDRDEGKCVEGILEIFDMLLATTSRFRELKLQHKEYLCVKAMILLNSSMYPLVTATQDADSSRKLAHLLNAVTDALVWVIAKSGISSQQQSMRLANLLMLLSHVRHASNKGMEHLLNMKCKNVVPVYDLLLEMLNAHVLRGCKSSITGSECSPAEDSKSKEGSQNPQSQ

| Compound | IC50 [1, 6] [µM] | IC50 [3] [µM] | IC50 [4, 7] [µM] | also measured |
| --- | --- | --- | --- | --- |
| CC1=C2c3ccc(O)cc3CC2(Cc2ccccc2)CCC1=O (stereo not shown) [CMP4, 9a-benzyl-7-hy-droxy-4-methyl-1,2,9,9a-tetra-hydro-3H-fluor-en-3-one] | 2.32 | 0.506 | – | response (trans-activation in yeast) [2]: dramatic loss of response; IC50 [4]: 1.47 µM |
| CC1=C2c3ccc4[nH]ncc4c3CC2(Cc2ccc(F)cc2)CCC1=O (stereo not shown) [CMP25, 6-methyl-9a-(4-fluoro-benzyl)-8,9,9a,10-tetra-hydroindeno[2,1-e]in-dazol-7(3H)-one] | – | 0.997 | – | – |
| CC1=C2c3ccc4[nH]ncc4c3CC2(Cc2ccccc2F)CCC1=O (stereo not shown) [CMP27, 6-methyl-9a-(2-fluoro-benzyl)-8,9,9a,10-tetra-hydroindeno[2,1-e]in-dazol-7(3H)-one] | – | 0.529 | 4.3 | – |
| CCCCC1=C2c3ccc(O)cc3CC2(Cc2ccccc2)CCC1=O (stereo not shown) [CMP7, 9a-benzyl-4-butyl-7-hy-droxy-1,2,9,9a-tetra-hydro-3H-fluor-en-3-one] | 1.31 | 0.307 | 0.259 | – |
| O=C1CCC2(Cc3ccccc3)Cc3cc(O)ccc3C2=C1c1ccc(O)cc1 (stereo not shown) [CMP6, 9a-benzyl-7-hydroxy-4-(4-hy-droxyphenyl)-1,2,9,9a-tetra-hydro-3H-flour-en-3-one] | – | 0.096 | – | IC50 [1]: 1.37 µM; IC50 [4]: 0.223 µM |
| CC1=C2c3ccc4[nH]nnc4c3CC2(Cc2ccccc2C(F)(F)F)CCC1=O (stereo not shown) [CMP34, 9a-[2-(tri-fluoromethyl)benzyl]-6-meth-yl-8,9,9a,10-tetra-hydrofluoreno[1,2-d][1,2,3]tri-azol-7(3H)-one] | – | > 10 | > 10 | – |
| 4 hydroxytamoxifen [4-OH Tam] | – | – | – | drug-dependent transgene induction [5]: up to hundred-fold |
| CC1=C2c3ccc4[nH]ncc4c3CC2(Cc2cccc(F)c2)CCC1=O (stereo not shown) [CMP26, 6-methyl-9a-(3-fluoro-benzyl)-8,9,9a,10-tetra-hydroindeno[2,1-e]in-dazol-7(3H)-one] | – | 1.07 | – | – |
| CC1=C2c3ccc(O)cc3CC2(Cc2ccc(Cl)cc2)CCC1=O (stereo not shown) [CMP17, 9a-(4-chlorobenzyl)-7-hy-droxy-4-methyl-1,2,9,9a-tetra-hydro-3%{H}-fluor-en-3-one] | 6.83 | – | – | – |
| O=C1CCC2(Cc3ccccc3)Cc3cc(O)ccc3C2=C1c1ccccn1 (stereo not shown) [CMP13, 9a-benzyl-7-hydroxy-4-py-ridin-2-yl-1,2,9,9a-tetra-hydro-3H-fluor-en-3-one] | > 3.6 | – | – | – |
| CC1=C2c3cc(Br)c(O)c(Br)c3CC2(Cc2ccccc2)CCC1=O (stereo not shown) [CMP24, 9a-benzyl-6,8-di-bromo-7-hydroxy-4-meth-yl-1,2,9,9a-tetra-hydro-3%{H}-fluor-en-3-one] | > 180 | – | – | – |
| O=C1CCC2(Cc3ccccc3)Cc3c(ccc4[nH]ncc34)C2=C1c1ccc(OCCN2CCCCC2)cc1 (stereo not shown) [CMP9, 9a-benzyl-6-{4-[2-(1-pipe-ridinyl)eth-oxy]phenyl}-8,9,9a,10-tetra-hydroindeno[2,1-e]in-dazol-7(3H)-one hydrotrifluoroacetae salt] | – | 0.125 | – | – |
| CC1=C2c3ccc4nn[nH]c4c3CC2(Cc2ccccc2)CCC1=O (stereo not shown) [CMP30, 9a-benzyl-6-methyl-8,9,9a,10-tetra-hydrofluoreno[1,2-d][1,2,3]tri-azol-7(3H)-one] | – | 4.19 | – | – |
| O=C1CCC2(Cc3ccccc3)Cc3cc(O)ccc3C2=C1c1ccncc1 (stereo not shown) [CMP15, 9a-benzyl-7-hydroxy-4-py-ridin-4-yl-1,2,9,9a-tetra-hydro-3H-fluor-en-3-one] | 0.725 | 0.558 | 1.18 | – |
| O=C1CCC2(Cc3ccccc3)Cc3cc(O)ccc3C2=C1c1cccnc1 (stereo not shown) [CMP14, 9a-benzyl-7-hydroxy-4-py-ridin-3-yl-1,2,9,9a-tetra-hydro-3H-fluor-en-3-one] | > 3.6 | – | – | – |
| CC1=C2c3ccc4[nH]ncc4c3CC2(Cc2ccccc2)CCC1=O (stereo not shown) [CMP5, 6-methyl-9a-ben-zyl-8,9,9a,10-tetra-hydroindeno[2,1-e]in-dazol-7(3H)-one] | > 10 | 1.25 | > 10 | – |
| O=C1CCC2(Cc3ccccc3)Cc3cc(O)ccc3C2=C1c1ccc(OCCN2CCOCC2)cc1 (stereo not shown) [CMP11, 9a-benzyl-7-hy-droxy-4-{4-[2-(4-mor-pholinyl)-eth-oxy]phenyl}-1,2,9,9a-tetra-hydro-3H-fluor-en-3-one] | – | – | – | IC50 [1]: 2.31 µM |
| O=C1CCC2(Cc3ccccc3)Cc3cc(O)ccc3C2=C1c1ccc(OCCN2CCCCC2)cc1 (stereo not shown) [CMP10, 9a-benzyl-7-hy-droxy-4-{4-[2-(1-pipe-ridinyl)-eth-oxy]phenyl}-1,2,9,9a-tetra-hydro-3H-fluor-en-3-one] | – | 0.184 | – | IC50 [1]: 1.27 µM; IC50 [4]: 0.375 µM |
| O=C1CCC2(Cc3ccc(Cl)cc3)Cc3cc(O)ccc3C2=C1c1ccc(OCCN2CCCCC2)cc1 (stereo not shown) [CMP8, 9a-(4-chlorobenzyl)-7-hy-droxy-4-{4-[2-(1-pipe-ridinyl)-eth-oxy]phenyl}-1,2,9,9a-tetra-hydro-3H-fluor-en-3-one] | 4.44 | 2.23 | 1.08 | – |
| CN(C)CCOc1ccc(C2=C3c4ccc(O)cc4CC3(Cc3ccccc3)CCC2=O)cc1 (stereo not shown) [CMP12, 9a-benzyl-4-{4-[2-(di-methylamino)ethoxy]phe-nyl}-7-hydroxy-1,2,9,9a-tetra-hydro-3H-fluor-en-3-one] | 4.17 | – | – | – |
